Experimental data as given in US7205308B2, “Trisubstituted 7-aminopyrazolopyrimidines as cyclin dependent kinase inhibitors” (Schering Corporation, priority 2002, dated 2007).
Values joined by “and” are separate entries in the source; they are usually repeats but may differ in a detail not shown here. Equal entries are not always repeated.

Experiments:
Cyclin E/CDK2 = target: T1, Cyclin E/CDK2 (Homo sapiens, UniProt P24941); assay: Cyclin E/CDK2 in vitro kinase assay (SPA, 33P-ATP, biotinylated Histone H1 peptide); assay type: biochemical; details: recombinant cyclin E/CDK2 from SF9 cells; 8 point serial dilutions in duplicate; 1 hour at room temperature
T1 construct: The expressed protein was approximately 34 kDa in size; made in house; host or cells: SF9 insect cells (baculovirus co-infection)

Compound	melting point	IC50 (Cyclin E/CDK2)
CS(=O)(=O)c1ccc(Nc2cc(-c3ccccc3)nc3c(C4CC4)cnn23)cc1	210 to 211 °C	
CC(C)c1cnn2c(Nc3ccc(S(C)(=O)=O)cc3)cc(-c3ccccc3)nc12	213 to 216 °C	
CS(=O)(=O)c1ccc(Nc2cc(-c3ccc(Cl)cc3)nc3c(Br)cnn23)cc1	249 to 253 °C	
CCc1cnn2c(Nc3ccc(S(C)(=O)=O)cc3)cc(-c3ccccc3)nc12	192 to 194 °C	
CS(=O)(=O)c1ccc(Nc2cc(-c3ccccc3)nc3c(Br)cnn23)cc1	202 to 204 °C	
O=S(=O)(O)c1cccc(Nc2cc(-c3ccccc3)nc3c(Br)cnn23)c1	206 to 208 °C	
O=S(=O)(O)c1ccc(Nc2cc(-c3ccccc3F)nc3c(Br)cnn23)cc1	> 250 °C	
CCc1cnn2c(Nc3ccc(S(=O)(=O)O)cc3)cc(-c3ccccc3)nc12	> 250 °C	
CN(C)S(=O)(=O)c1ccc(Nc2cc(-c3ccccc3)nc3c(Br)cnn23)cc1	237 to 239 °C	
CC(C)(C)OC(=O)NCCNS(=O)(=O)c1ccc(Nc2cc(-c3ccccc3)nc3c(Br)cnn23)cc1	195 to 197 °C	
O=S(=O)(NCc1ccccc1)c1ccc(Nc2cc(-c3ccccc3)nc3c(Br)cnn23)cc1	216 to 218 °C	
O=S(=O)(NCCCO)c1ccc(Nc2cc(-c3ccccc3)nc3c(Br)cnn23)cc1	165 to 168 °C	
O=S(=O)(Nc1ccccc1)c1ccc(Nc2cc(-c3ccccc3)nc3c(Br)cnn23)cc1	147 to 150 °C	
CC(C)(C)OC(=O)N1CCC(NS(=O)(=O)c2ccc(Nc3cc(-c4ccccc4)nc4c(Br)cnn34)cc2)CC1	127 to 129 °C	
CS(=O)(=O)c1ccc(Nc2cc(-c3ccccc3F)nc3c(Cl)cnn23)cc1	232 to 235 °C	
O=S(=O)(NC1CCCC1)c1ccc(Nc2cc(-c3ccccc3)nc3c(Br)cnn23)cc1	> 200 °C (dec.)	
CC(CO)NS(=O)(=O)c1ccc(Nc2cc(-c3ccccc3)nc3c(Br)cnn23)cc1 (stereo not shown)	> 200 °C (dec.)	
O=S(=O)(NCc1ccccn1)c1ccc(Nc2cc(-c3ccccc3)nc3c(Br)cnn23)cc1	101 to 103 °C	
O=S(=O)(NCc1cccnc1)c1ccc(Nc2cc(-c3ccccc3)nc3c(Br)cnn23)cc1	110 to 114 °C	
O=S(=O)(O)CCNS(=O)(=O)c1ccc(Nc2cc(-c3ccccc3)nc3c(Br)cnn23)cc1	206 to 208 °C	
CS(=O)(=O)c1ccc(Nc2cc(-c3ccccc3F)nc3c(Br)cnn23)cc1	117 to 118 °C	
CC(CO)(CO)NS(=O)(=O)c1ccc(Nc2cc(-c3ccccc3)nc3c(Br)cnn23)cc1	98 to 100 °C	
COC(=O)CNS(=O)(=O)c1ccc(Nc2cc(-c3ccccc3)nc3c(Br)cnn23)cc1	182 to 184 °C	
CN1CCN(S(=O)(=O)c2ccc(Nc3cc(-c4ccccc4)nc4c(Br)cnn34)cc2)CC1	228 to 230 °C	

Compound	melting point	IC50 (Cyclin E/CDK2)
O=S(=O)(N[C@@H](CO)Cc1ccccc1)c1ccc(Nc2cc(-c3ccccc3)nc3c(Br)cnn23)cc1	108 to 110 °C	
O=S(=O)(N[C@H](CO)Cc1ccccc1)c1ccc(Nc2cc(-c3ccccc3)nc3c(Br)cnn23)cc1	102 to 105 °C	
CS(=O)(=O)c1ccc(Nc2cc(-c3cccc(C(F)(F)F)c3)nc3c(Br)cnn23)cc1	210 to 212 °C	
O=S(=O)(NCCO)c1cccc(Nc2cc(-c3ccccc3)nc3c(Br)cnn23)c1	87 to 90 °C	
CC(O)CNS(=O)(=O)c1cccc(Nc2cc(-c3ccccc3)nc3c(Br)cnn23)c1 (stereo not shown)	115 to 120 °C	
CCc1cnn2c(Nc3ccc(S(=O)(=O)NCCN(C)C)cc3)cc(-c3ccccc3)nc12	99 to 101 °C	
CC(C)c1cc(Nc2ccc(S(C)(=O)=O)cc2)n2ncc(Br)c2n1	214 to 215 °C	
CC(C)c1cc(Nc2ccccc2)n2ncc(Br)c2n1	166 to 168 °C	
CC(C)(C)c1cc(Nc2ccccc2)n2ncc(Br)c2n1	144 °C	
CS(=O)(=O)c1ccc(Nc2cc(-c3ccccc3Cl)nc3c(Br)cnn23)cc1 [Example 1]		400 nM and 1400 nM
Clc1ccccc1-c1cc(Nc2ccccc2)n2ncc(Br)c2n1 [Example 2]		510 nM
Fc1ccccc1-c1cc(Nc2ccccc2)n2ncc(Cl)c2n1 [Example 3]	112 to 116 °C	42 nM
O=S(=O)(O)c1ccc(Nc2cc(-c3ccccc3)nc3c(Br)cnn23)cc1 [Example 22]	> 250 °C	82 nM
CCNS(=O)(=O)c1ccc(Nc2cc(-c3ccccc3)nc3c(Br)cnn23)cc1 [Example 28]	101 to 104 °C	80 nM
O=S(=O)(NCCO)c1ccc(Nc2cc(-c3ccccc3)nc3c(Br)cnn23)cc1 [Example 30]	175 to 177 °C	29 nM
NS(=O)(=O)c1ccc(Nc2cc(-c3ccccc3)nc3c(Br)cnn23)cc1 [Example 31]	206 to 208 °C	45 nM
CNS(=O)(=O)c1ccc(Nc2cc(-c3ccccc3)nc3c(Br)cnn23)cc1 [Example 32]	231 to 233 °C	57 nM
O=S(=O)(Nc1ccncc1)c1ccc(Nc2cc(-c3ccccc3)nc3c(Br)cnn23)cc1 [Example 38]	192 to 195 °C	40 nM
COCCNS(=O)(=O)c1ccc(Nc2cc(-c3ccccc3)nc3c(Br)cnn23)cc1 [Example 42]	172 to 173 °C	70 nM
CN(C)CCNS(=O)(=O)c1ccc(Nc2cc(-c3ccccc3)nc3c(Br)cnn23)cc1 [Example 43]	165 to 167 °C	34 nM
O=S(=O)(c1ccc(Nc2cc(-c3ccccc3)nc3c(Br)cnn23)cc1)N(CCO)CCO [Example 47]	90 to 92 °C	34 nM
CN(C)CC(C)(C)CNS(=O)(=O)c1ccc(Nc2cc(-c3ccccc3)nc3c(Br)cnn23)cc1 [Example 48]	163 to 165 °C	25 nM
O=S(=O)(NC(CO)CO)c1ccc(Nc2cc(-c3ccccc3)nc3c(Br)cnn23)cc1 [Example 50]	122 to 124 °C	30 nM
CN(C)CCCNS(=O)(=O)c1ccc(Nc2cc(-c3ccccc3)nc3c(Br)cnn23)cc1 [Example 53]	78 to 80 °C	11 nM
